Assays:
[1] = biological target: GST-Pin1 (Homo sapiens, UniProt Q13526); test: Fluorescence polarization (FP) competition assay; format: binding; settings: FP assay, competition with fluorescein-labeled peptide, 250 nM GST-Pin1; read-out: Ki (apparent)
Method: Binding affinity to Pin1 was determined using a fluorescence polarization assay to assess competition with an N-terminal fluorescein-labeled peptide (Bth-D-phosThr-Pip-Nal), which was obtained from JPT Peptide Technologies and Proteintech Group. The indicated concentrations of candidate compound were pre-incubated for 12 hours at 4° C. with a solution containing 250 nM glutathione S-transferase (GST)-Pin1, 5 nM of fluorescein-labeled peptide probe, 10 μg/ml bovine serum albumin, 0.01% Tween-20 and 1 mM DTT (dithiothreitol) in a buffer of 10 mM HEPES, 10 mM NaCl and 1% glycerol (pH 7.4). Measurements of FP were performed in black 384-well plates (Corning) using an EnVision™ reader. Apparent Ki values (under the tested conditions) obtained from the FP assay results were derived from the Kenakin Ki equation:
Kenakin Ki=(Lb)(EC50)(Kd)/(Lo)(Ro)+Lb(Ro−Lo+Lb−Kd)
Sittampalam G. S. et al., Eli Lilly & Company and the National Center for Advancing Translational Sciences, 2004].
Covalent labeling of Pin1 was confirmed to translate into enzyme inhibition via a fluorescence polarization (FP) competition assay using a FITC-labeled substrate mimetic peptide inhibitor, as well as a chymotrypsin-coupled PPIase assay, using procedures described in Wei et al. [Nat Med 2015, 21:457-466].
The fluorescent polarization assay was performed in a dose-dependent and time-dependent manner, in order to further characterize the kinetic parameters of Pin1-3 binding to Pin1.

[2] = biological target: T1, Pin1 in PATU-8988T cells (Homo sapiens, UniProt Q13526); test: Live cell competition assay with Pin1-3-DTB pull-down, PATU-8988T cells; format: cell-based; settings: 0.25 to 1 μM for 5 hours (Pin1-3-AcA 1 μM)
T1 construct: endogenous in cells; host or cells: PATU-8988T
Method: (§1) The indicated cells were treated with increasing concentrations of either DMSO, Pin1-3, or Pin1-3-AcA for 5 hours. Cells were harvested by scraping and washed twice with PBS before lysis with 50 mM HEPES (pH 7.4), 1 mM EDTA, 10% glycerol, 1 mM TCEP, 150 mM NaCl, 1 mM EDTA, 0.5% NP-40, and protease inhibitor tablet (Roche cat. #4693159001). After clarifying (14,000 rpm for 15 minutes), samples were treated with the indicated concentrations of Pin1-3-DTB at 4° C. for 1 hour. Lysates were then incubated with streptavidin agarose resin (Thermo Scientific, cat. #20349) for 1.5 hour at 4° C. Beads were washed four times with 500 μl of washing buffer (50 mM HEPES (pH 7.5), 10 mM NaCl, 1 mM EDTA, 10% glycerol), then pelleted by centrifugation and dried. The beads were boiled for 5 minutes at 95° C. in 2×LDS+10% β-mercaptoethanol. Proteins of interest were then assessed via Western blotting using the bolt system (Life Technologies).
The indicated cells were plated in 10 cm plates with 2.5 million cells per plate in 6 ml of medium. The day after plating, cells were treated with the indicated concentrations of candidate inhibitor for the indicated time points. The cells were then washed two times with cold phosphate buffer saline (1 ml per 10 cm plate) and collected by scraping with a cell scraper. Cells were lysed in 50 mM HEPES (pH 7.4), 1 mM EDTA, 10% glycerol, 1 mM TCEP, 150 mM NaCl, 1 mM EDTA, 0.5% NP-40, and protease inhibitor tablet (Roche)-using 210 μl of cell lysis buffer per 10 cm plate of cells. After clarifying (14,000 rpm for 15 minutes), 9 μl of each lysate sample was combined with […] of 4×LDS+10% β-mercaptoethanol (in a ratio of 3:1), boiled for 5 minutes, and set aside for the input loading control. Then, 200 μl of each lysate sample was incubated with 1 μM of Pin1-3-DTB for 1 hour at 4° C. and processed as described hereinabove for the lysate pull-down assays.
In order to assess cell permeability of Pin1-3 as well as its ability to engage cellular Pin1, PATU-8988T cells were treated with Pin1-3 (0.25 to 1 μM) for 5 hours. After cell lysis, the lysates were incubated with Pin1-3-DTB (1 μM, 1 hour at 4° C.) and probe-labeled targets were pulled down with streptavidin beads.

[3] = biological target: T2, Pin1 in IMR32 cells (Homo sapiens, UniProt Q13526); test: Live cell competition assay with Pin1-3-DTB pull-down, IMR32 cells; format: cell-based; settings: IMR32 cells, 0.25, 0.5 or 1 μM Pin1-3 or 1 μM Pin1-3-AcA
T2 construct: endogenous in cells; host or cells: IMR32
Method: as §1
The indicated cells were plated in 10 cm plates with 2.5 million cells per plate in 6 ml of medium. The day after plating, cells were treated with the indicated concentrations of candidate inhibitor for the indicated time points. The cells were then washed two times with cold phosphate buffer saline (1 ml per 10 cm plate) and collected by scraping with a cell scraper. […]

[4] = tested on: wild-type 8988T pancreatic cancer cells; test: Organoid growth in Matrigel, wild-type PATU-8988T; format: cell-based; settings: 1 μM, 9 days
Method: (§2) As three dimensional (3D) organoid models can reflect in vivo results better than monolayer cell culture [Baker et al., Trends Cancer Res 2016, 2:176-190], the anti-proliferative activity of Pin1-3 in PATU-8988T was further evaluated in wild-type or Pin1-knockout cells grown as organoids in Matrigel™ droplets. Cells were treated for 9 days with Pin1-3 (or Pin1-3-AcA or vehicle as a control), replenishing the compound in media every 3 days.

[5] = tested on: Pin1-knockout pancreatic cancer cells; test: Organoid growth in Matrigel, Pin1-knockout PATU-8988T; format: cell-based; settings: 1 μM, 9 days
Method: as §2

[6] = biological target: T3, Pin1 in PAT8988T cell lysates (Homo sapiens, UniProt Q13526); test: Lysate pull-down assay with Pin1-3-DTB; format: binding; settings: 1 μM probe, 1 hour incubation in cell lysates
T3 construct: endogenous in cells; host or cells: PATU-8988T
Method: as §1

GST-Pin1, sequence (Q13526 whole entry): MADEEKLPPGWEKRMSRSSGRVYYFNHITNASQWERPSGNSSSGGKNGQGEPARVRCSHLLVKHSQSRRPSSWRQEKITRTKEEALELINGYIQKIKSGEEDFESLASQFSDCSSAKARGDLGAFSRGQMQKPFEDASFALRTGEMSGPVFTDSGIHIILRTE
T2 sequence (Q13526 whole entry): as above
T1 sequence (Q13526 whole entry): as above
T3 sequence (Q13526 whole entry): as above

| Structure (SMILES) | Ki [1] [nM] | Competition with Pin1-3-DTB for Pin1 binding (pull-down) [2] | Engagement of Pin1 (competition with Pin1-3-DTB) [3] | Organoid growth [4] | Organoid growth [5] | Pull-down of Pin1 by the probe [6] |
| --- | --- | --- | --- | --- | --- | --- |
| CC(=O)N(CC(C)(C)C)C1CCS(=O)(=O)C1 (stereo not shown) [Pin1-3-AcA, reference compound] | > 100000 | no competition | does not | no effect | no effect | – |
| CC1NC(=O)NC1CCCCCC(=O)NCCOCCOCCOCCC(=O)NCC(C)(C)CN(C(=O)CCl)C1CCS(=O)(=O)C1 (stereo not shown) [Pin1-3-DTB] | 38 | – | – | – | – | complete pull-down |

Reference: patent US20210332024A1, “MODULATORS OF PIN1 ACTIVITY AND USES THEREOF” (Yeda Research and Development Co. Ltd., priority 2019, published 2021)
